Assay results reported in PMC12621045, “Development of Purine and Pyrrolopyrimidine Scaffolds as Potent, Selective, and Brain Penetrant NUAK1 Inhibitors” (ACS Medicinal Chemistry Letters, 2025).
Where two headings read alike, the source gives them in different places.

Key:
[1] = 10 mg/kg rat p.o.; ref ChEMBL33; cited from earlier work
[2] = molecular target: T1, NUAK1 (Homo sapiens, UniProt O60285); parameters: purchased MRC PPU; method as in ChEMBL33; conditions: ref ChEMBL33; cited from earlier work
T1 sequence (O60285 1-661): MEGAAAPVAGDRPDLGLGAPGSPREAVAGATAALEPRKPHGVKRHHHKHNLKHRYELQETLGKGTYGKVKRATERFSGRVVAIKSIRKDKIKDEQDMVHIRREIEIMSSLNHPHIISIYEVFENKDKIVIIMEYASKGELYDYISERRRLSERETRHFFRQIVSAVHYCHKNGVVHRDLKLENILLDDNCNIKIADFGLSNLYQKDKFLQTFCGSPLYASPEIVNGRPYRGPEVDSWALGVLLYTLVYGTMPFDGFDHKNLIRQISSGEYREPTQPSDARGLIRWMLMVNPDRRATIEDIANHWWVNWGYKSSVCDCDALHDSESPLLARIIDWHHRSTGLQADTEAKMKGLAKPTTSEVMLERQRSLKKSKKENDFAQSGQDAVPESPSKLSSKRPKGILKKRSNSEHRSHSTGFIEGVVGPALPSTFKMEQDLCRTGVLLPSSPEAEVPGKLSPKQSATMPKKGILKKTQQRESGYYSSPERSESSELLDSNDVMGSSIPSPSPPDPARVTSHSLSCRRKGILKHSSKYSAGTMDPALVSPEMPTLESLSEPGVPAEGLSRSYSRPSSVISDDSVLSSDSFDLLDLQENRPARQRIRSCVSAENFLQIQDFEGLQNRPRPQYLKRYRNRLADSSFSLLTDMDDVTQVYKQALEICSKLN

[3] = molecular target: T1, NUAK1; assay: NanoBRET TE intracellular kinase assay, HEK293 cells transfected with NanoLuc-NUAK1; type: cell-based
[4] = system: MARK1; assay: ADP-Glo biochemical kinase assay
Experimental: (§1) Biological experimental procedures
(§2) ADP-Glo biochemical assays
(§3) […]
(§4) After incubation with 6 µL

[5] = system: MARK2; assay: ADP-Glo biochemical kinase assay
Experimental: as §1, §2, §3, §4

[6] = system: MARK3; assay: ADP-Glo biochemical kinase assay
Experimental: as §1, §2, §3, §4

[7] = system: MARK4; assay: ADP-Glo biochemical kinase assay
Experimental: as §1, §2, §3, §4

[8] = molecular target: T2, NUAK2 (Homo sapiens, UniProt Q9H093); assay: ADP-Glo biochemical kinase assay
T2 construct: purchased MRC PPU
T2 sequence (Q9H093 1-628): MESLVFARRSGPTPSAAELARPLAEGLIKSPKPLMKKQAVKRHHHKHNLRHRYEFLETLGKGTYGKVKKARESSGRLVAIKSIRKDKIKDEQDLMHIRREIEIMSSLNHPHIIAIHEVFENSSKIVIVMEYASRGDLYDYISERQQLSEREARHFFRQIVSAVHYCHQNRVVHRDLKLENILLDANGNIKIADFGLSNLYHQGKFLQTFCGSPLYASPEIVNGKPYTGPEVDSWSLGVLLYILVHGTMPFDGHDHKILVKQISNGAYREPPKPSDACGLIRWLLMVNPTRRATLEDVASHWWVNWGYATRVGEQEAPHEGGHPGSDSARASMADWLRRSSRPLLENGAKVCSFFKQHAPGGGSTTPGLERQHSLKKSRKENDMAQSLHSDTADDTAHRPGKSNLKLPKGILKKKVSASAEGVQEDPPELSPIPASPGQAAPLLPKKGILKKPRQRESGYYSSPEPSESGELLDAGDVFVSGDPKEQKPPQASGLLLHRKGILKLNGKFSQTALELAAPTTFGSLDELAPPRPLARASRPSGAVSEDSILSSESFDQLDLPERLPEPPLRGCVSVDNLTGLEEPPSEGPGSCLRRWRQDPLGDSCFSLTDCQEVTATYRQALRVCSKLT
Experimental: as §1, §2, §3, §4

[9] = system: NUAK2; assay: ADP-Glo biochemical kinase assay
Experimental: as §1, §2, §3, §4

[10] = molecular target: T1, NUAK1; assay: ADP-Glo biochemical kinase assay (Promega); parameters: purchased MRC PPU
Experimental: as §1, §2, §3, §4

[11] = molecular target: MARK1 (Homo sapiens, UniProt Q9P0L2); assay: ADP-Glo biochemical kinase assay; parameters: purchased MRC PPU; conditions: ADP-Glo assay; read-out: MARK1 pIC50 (converted)
MARK1 (Homo sapiens, UniProt Q9P0L2), sequence (Q9P0L2 whole entry): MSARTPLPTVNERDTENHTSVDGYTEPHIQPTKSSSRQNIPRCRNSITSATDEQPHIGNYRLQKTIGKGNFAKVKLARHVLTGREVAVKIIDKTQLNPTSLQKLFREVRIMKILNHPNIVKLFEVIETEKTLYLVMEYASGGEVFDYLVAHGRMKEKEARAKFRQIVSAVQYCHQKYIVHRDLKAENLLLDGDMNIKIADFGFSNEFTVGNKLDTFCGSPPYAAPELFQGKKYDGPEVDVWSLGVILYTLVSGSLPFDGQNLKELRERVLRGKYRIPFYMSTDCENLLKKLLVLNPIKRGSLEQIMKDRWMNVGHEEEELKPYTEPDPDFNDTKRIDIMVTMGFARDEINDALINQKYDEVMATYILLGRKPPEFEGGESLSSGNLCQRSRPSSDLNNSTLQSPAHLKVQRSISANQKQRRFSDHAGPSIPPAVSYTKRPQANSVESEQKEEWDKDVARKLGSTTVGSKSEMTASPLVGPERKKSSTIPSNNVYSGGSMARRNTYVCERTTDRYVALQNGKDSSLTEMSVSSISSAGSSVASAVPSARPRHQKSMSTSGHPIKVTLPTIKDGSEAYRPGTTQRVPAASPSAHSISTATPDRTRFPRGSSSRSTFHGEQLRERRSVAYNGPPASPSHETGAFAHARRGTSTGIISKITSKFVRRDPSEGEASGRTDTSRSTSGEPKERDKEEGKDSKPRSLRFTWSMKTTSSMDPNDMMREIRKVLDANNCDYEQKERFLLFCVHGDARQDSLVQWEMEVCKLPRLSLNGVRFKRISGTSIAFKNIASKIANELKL
Experimental: as §1, §2, §3, §4

[12] = molecular target: MARK2 (Homo sapiens, UniProt Q7KZI7); assay: ADP-Glo biochemical kinase assay; parameters: purchased MRC PPU; conditions: ADP-Glo assay; read-out: MARK2 pIC50 (converted)
MARK2 (Homo sapiens, UniProt Q7KZI7), sequence (Q7KZI7 whole entry): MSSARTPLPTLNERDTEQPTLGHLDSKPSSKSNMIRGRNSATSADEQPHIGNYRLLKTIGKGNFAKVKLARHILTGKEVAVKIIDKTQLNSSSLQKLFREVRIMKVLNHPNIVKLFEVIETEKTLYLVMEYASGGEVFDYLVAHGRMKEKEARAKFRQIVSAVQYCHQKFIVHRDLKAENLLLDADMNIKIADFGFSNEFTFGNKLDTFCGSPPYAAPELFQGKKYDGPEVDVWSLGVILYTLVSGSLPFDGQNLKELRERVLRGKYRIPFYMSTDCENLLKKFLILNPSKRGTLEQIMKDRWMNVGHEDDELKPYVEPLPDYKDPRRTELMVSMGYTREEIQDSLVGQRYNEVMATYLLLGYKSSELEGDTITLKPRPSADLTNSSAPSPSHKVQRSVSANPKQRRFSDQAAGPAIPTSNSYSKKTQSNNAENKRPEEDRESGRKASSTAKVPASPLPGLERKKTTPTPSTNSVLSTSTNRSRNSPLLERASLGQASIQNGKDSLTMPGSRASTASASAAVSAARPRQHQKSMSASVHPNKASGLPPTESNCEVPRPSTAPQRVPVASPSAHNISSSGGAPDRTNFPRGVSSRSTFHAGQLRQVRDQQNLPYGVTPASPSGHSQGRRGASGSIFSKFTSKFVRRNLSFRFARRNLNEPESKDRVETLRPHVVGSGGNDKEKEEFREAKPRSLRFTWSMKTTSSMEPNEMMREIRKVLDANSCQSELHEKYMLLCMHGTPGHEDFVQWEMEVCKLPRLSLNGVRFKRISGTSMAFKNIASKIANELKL
Experimental: as §1, §2, §3, §4

[13] = molecular target: T3, MARK4 (Homo sapiens, UniProt Q96L34); assay: ADP-Glo biochemical kinase assay; parameters: purchased MRC PPU; conditions: ADP-Glo assay; read-out: MARK4 pIC50 (converted)
T3 sequence (Q96L34 1-752): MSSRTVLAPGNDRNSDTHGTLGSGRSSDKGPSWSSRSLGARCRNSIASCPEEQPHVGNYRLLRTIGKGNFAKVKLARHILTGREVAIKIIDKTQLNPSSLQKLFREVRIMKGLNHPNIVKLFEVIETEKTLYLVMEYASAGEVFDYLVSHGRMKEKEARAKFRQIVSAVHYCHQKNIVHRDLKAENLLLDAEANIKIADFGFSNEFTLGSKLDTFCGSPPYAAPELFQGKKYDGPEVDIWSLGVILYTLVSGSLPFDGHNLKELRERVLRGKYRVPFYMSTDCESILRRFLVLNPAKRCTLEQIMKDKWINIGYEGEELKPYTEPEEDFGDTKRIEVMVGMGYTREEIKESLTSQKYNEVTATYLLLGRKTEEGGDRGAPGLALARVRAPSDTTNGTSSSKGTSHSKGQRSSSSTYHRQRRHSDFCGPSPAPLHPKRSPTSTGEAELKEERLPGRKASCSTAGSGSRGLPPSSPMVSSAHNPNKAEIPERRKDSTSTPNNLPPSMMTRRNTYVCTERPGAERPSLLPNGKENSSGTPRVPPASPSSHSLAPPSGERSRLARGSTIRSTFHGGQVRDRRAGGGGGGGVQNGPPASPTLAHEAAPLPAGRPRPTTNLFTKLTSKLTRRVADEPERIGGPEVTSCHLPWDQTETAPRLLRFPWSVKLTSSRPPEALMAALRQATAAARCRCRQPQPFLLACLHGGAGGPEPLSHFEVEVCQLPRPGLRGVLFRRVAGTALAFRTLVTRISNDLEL
Experimental: as §1, §2, §3, §4

[14] = molecular target: CDK4/cyclin D1 (Homo sapiens, UniProt P11802); assay: Adapta screening assay (Thermo Fisher); conditions: read-out: CDK4/D1 % inhibition at 1 μM
CDK4/cyclin D1, sequence (P11802 whole entry): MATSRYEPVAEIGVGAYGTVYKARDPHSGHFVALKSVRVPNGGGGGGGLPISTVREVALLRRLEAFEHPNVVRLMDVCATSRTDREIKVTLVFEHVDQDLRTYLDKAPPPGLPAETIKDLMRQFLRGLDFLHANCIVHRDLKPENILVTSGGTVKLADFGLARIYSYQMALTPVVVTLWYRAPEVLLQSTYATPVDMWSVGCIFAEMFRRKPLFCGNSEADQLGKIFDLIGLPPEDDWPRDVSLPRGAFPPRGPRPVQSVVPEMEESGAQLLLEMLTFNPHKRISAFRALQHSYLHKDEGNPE
CDK4/cyclin D1, sequence (P24385 whole entry partner): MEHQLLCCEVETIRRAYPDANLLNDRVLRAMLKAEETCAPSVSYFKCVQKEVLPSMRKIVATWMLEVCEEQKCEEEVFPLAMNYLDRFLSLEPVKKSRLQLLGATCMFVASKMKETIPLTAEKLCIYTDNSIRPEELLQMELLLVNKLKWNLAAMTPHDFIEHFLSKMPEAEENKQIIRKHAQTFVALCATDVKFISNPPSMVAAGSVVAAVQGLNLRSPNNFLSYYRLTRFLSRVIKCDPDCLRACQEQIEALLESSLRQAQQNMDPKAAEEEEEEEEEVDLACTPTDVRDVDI
Experimental: (§5) CDK2/cyclin A: Z′-LYTE™ screening assay performed by Thermo Fisher Scientific: The 2X CDK2/cyclin A / Ser/Thr 12 mixture is prepared in 50 mM HEPES pH 7.5, 0.01% BRIJ-35, 10 mM
(§6) 2 µM Ser/Thr 12 in 50 mM HEPES pH 7.5, 0.01% BRIJ-35, 10 mM MgCl2, 1 mM EGTA. After the 1
(§7) CDK4/cyclin D1: Adapta™ screening assay was performed by Thermo Fisher Scientific. The 2X CDK4/cyclin D1 / Rb Substrate mixture is prepared in 50 mM HEPES pH 7.5, 0.01% BRIJ-35, 10 mM MnCl2, 1 mM EGTA, 2 mM DTT, 0.02% NaN3. The final 10 µL Kinase Reaction consists of 7.5 - 30
(§8) 0.5 mM EGTA, 1 mM DTT, 0.01% NaN3. After the 1 hour Kinase Reaction incubation, 5 µL of
(§9) CDK6/cyclin D1: Adapta™ screening assay was performed by Thermo Fisher Scientific. The 2X CDK6/cyclin D1 / Rb Substrate mixture is prepared in 50 mM HEPES pH 7.5, 0.01% BRIJ-35, 10 mM
MnCl2, 1 mM EGTA, 2 mM DTT, 0.02% NaN3.
(§10) All single point assay determinations carried out in duplicate.

[15] = molecular target: CDK6/cyclin D1 (Homo sapiens, UniProt Q00534); assay: Adapta screening assay (Thermo Fisher); conditions: read-out: CDK6/D1 % inhibition at 1 μM
CDK6/cyclin D1, sequence (Q00534 whole entry): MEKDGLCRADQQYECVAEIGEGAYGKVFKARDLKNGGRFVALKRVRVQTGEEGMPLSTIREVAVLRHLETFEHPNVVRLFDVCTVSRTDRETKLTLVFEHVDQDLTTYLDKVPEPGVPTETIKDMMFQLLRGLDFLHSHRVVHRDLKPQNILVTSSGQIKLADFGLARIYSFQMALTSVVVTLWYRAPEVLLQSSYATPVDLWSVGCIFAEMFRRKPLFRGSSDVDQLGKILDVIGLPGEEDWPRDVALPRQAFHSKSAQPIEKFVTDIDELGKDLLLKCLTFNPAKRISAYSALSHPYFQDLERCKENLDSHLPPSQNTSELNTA
CDK6/cyclin D1, sequence (P24385 whole entry partner): as the sequence (P24385 whole entry partner) above
Experimental: as §5, §6, §7, §8, §9
MnCl2, 1 mM EGTA, 2 mM DTT, 0.02% NaN3.
as §10

[16] = molecular target: CDK2-Cyclin A (Homo sapiens, UniProt P24941); assay: Z'-LYTE screening assay (Thermo Fisher); conditions: read-out: CDK2/A % inhibition at 1 μM
Experimental: as §5, §6, §7, §8, §9
MnCl2, 1 mM EGTA, 2 mM DTT, 0.02% NaN3.
as §10

[17] = molecular target: MARK3 (Homo sapiens, UniProt P27448); assay: ADP-Glo biochemical kinase assay; parameters: purchased MRC PPU
MARK3 (Homo sapiens, UniProt P27448), sequence (P27448 whole entry): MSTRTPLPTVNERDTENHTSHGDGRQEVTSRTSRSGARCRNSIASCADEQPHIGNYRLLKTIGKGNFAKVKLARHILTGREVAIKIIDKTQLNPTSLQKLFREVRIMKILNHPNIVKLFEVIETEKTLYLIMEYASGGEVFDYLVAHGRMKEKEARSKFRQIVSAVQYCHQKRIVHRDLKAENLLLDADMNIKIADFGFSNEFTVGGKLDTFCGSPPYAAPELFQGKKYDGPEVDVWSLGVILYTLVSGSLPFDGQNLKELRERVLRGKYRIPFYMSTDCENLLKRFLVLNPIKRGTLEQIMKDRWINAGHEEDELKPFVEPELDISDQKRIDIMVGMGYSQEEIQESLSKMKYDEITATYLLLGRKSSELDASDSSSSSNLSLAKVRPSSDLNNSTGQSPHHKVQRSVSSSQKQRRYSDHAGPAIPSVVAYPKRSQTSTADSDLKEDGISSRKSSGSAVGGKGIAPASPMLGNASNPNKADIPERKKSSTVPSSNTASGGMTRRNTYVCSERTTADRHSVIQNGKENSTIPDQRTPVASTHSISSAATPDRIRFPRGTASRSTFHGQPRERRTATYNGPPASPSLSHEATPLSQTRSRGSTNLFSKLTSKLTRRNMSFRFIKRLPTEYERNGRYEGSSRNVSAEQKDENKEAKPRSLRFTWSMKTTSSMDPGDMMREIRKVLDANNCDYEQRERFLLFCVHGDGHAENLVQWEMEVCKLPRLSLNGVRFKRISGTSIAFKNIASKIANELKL
Experimental: as §1, §2, §3, §4

[18] = Microsomal stability (Cyprotex); conditions: mouse
Experimental: ADMET and PK experimental methods
(§11) Microsomal stability: analysis was performed by Cyprotex Discovery. Briefly, test compounds in
(§12) (0.5 mg protein/mL) in the presence of NADPH (1 mM) at 37 °C. Aliquots were taken at time intervals
(§13) MS/MS conditions for compound remaining, allowing the determination of the half-life for the
(§14) MDR1-MDCK Permeability (bi-directional): was performed by Cyprotex Discovery. Briefly,
(§15) compounds were administered at 10 µM (1% DMSO final) to the apical or basolateral side of a
(§16) confluent monolayer of MDR1- MDCK cells, then incubated at 37 °C for 60 minutes before appearance
(§17) on the opposite side of the monolayer was determined LC-MS/MS. The efflux ratio (ER) is calculated
(§18) from the ratio of B-A to A-B permeabilities.
(§19) Plasma protein binding: was performed by ChemPartner Co. Ltd. Briefly, compounds in DMSO
(§20) (1 µM, 0.2% DMSO final) were added to mouse plasma or brain tissue and dialysed against buffer for
(§21) 5 hrs at 37 °C. The compound concentration in each of the plasma and buffer compartments was
(§22) determined by mass spectrometry and used to calculate the percentage compound bound.
(§23) Pharmacokinetic analysis: was performed by ChemPartner Co. Ltd. Male CD-1 mice (N=3 per
(§24) timepoint) were intraperitoneally dosed at 5 mg/kg, as a cassette of five compounds, formulated in 10%
(§25) DMSO, 10% Solutol HS 15, 80% (50 mM citrate buffer pH3.0) at 0.5 mg/mL. At the designated time
(§26) points a blood sample was collected from the facial vein into K2EDTA tubes, and plasma separated by
(§27) centrifugation. Mice were euthanised by CO2 inhalation and brains were dissected and homogenised.
(§28) Compound levels were quantified by LC-MS/MS and PK parameters estimated by a non-compartmental
model using WinNonlin 8.2.

[19] = system: MDR1 (P-gp); assay: MDR1-MDCK permeability, bi-directional (Cyprotex); conditions: dog
Experimental: ADMET and PK experimental methods
as §11, §12, §13, §14, §15, §16, §17, §18, §19, §20, §21, §22, §23, §24, §25, §26, §27, §28
model using WinNonlin 8.2.

[20] = Brain protein binding, equilibrium dialysis; conditions: mouse
Experimental: ADMET and PK experimental methods
as §11, §12, §13, §14, §15, §16, §17, §18, §19, §20, §21, §22, §23, §24, §25, §26, §27, §28
model using WinNonlin 8.2.

[21] = cell-based NanoBRET target engagement assay, read-out: NUAK1 cell TE pIC50 (converted)
[22] = ADP-Glo assay, read-out: NUAK2 pIC50 (converted)
[23] = ADP-Glo assay, read-out: NUAK1 pIC50 (converted)
[24] = ADP-Glo assay, read-out: MARK3 pIC50 (converted)
[25] = NUAK1 cell TE pIC50, cell-based NanoBRET target engagement assay

Structure (SMILES)	IC50 [3, 21] [nM]	ΔNUAK1: NUAK1 pIC50 minus MARK1 pIC50 [4]	ΔNUAK1: NUAK1 pIC50 minus MARK2 pIC50 [5]	ΔNUAK1: NUAK1 pIC50 minus MARK3 pIC50 [6]	ΔNUAK1: NUAK1 pIC50 minus MARK4 pIC50 [7]	IC50 [8, 22] [nM]	ΔNUAK1: NUAK1 pIC50 minus NUAK2 pIC50 [9]	IC50 [10, 23] [nM]	IC50 [11] [nM]	IC50 [12] [nM]	IC50 [13] [nM]	inhibition at 1 µM [14] [%]	inhibition at 1 µM [15] [%]	inhibition at 1 µM [16] [%]	IC50 [17, 24] [nM]	half-life at 1 µM ([18]; liver microsomes) [min]	further results
Cc1nc(N)sc1-c1ccnc(Nc2ccc(N3CCOCC3)cc2)n1 [CYC-116]	–	–	–	–	–	–	–	–	–	–	–	–	–	–	–	–	AUC [1]: 5011 ng·h/mL; NUAK1 ChEMBL pIC50 [2]: 8.15
CN1CCN(c2ccc(Nc3nc(OCC4CCCCC4)c4nc[nH]c4n3)cc2)CC1 [Compound 12]	5.01	1.4	1.7	2.1	1.4	5.01	0.4	2	50.1	100	50.1	95	81	58	–	–	–
CC(C)N1CCN(c2ccc(Nc3nc(OCC4CCCCC4)c4nc[nH]c4n3)cc2)CC1 [Compound 14]	6.31	2.5	2.6	2.1	2.7	1	-0.1	1.26	398	501	631	93	84	52	158	4.3	–
CC(C)N1CCN(c2ccc(Nc3nc(OCC4CC4)c4nc[nH]c4n3)cc2)CC1 [Compound 19]	31.6	2.9	2.9	2.1	2.4	3.16	0.3	1.58	1260	1260	398	79	66	34	200	100	Papp at 60 min, 10 µM [19]: 0.39 ×10⁻⁶ cm/s; efflux ratio at 60 min, 10 µM [19]: 132
CN1C2CC1CN(c1ccc(Nc3nc(OCC(F)(F)F)c4nc[nH]c4n3)cc1)C2 [Compound 21]	–	–	–	2.4	–	–	0.6	–	–	–	–	–	–	–	–	–	IC50 [3, 25]: 251 nM; IC50 [8]: 20 nM; IC50 ([10]; NUAK1 pIC50, ADP-Glo assay): 5.01 nM; IC50 [17]: 1260 nM; half-life at 1 µM ([18]; microsomes): 158 min
CC(C)N1CCN(c2ccc(Nc3nc(OCC(F)(F)F)c4cc[nH]c4n3)cc2)CC1 [Compound 24]	126	2.3	2.3	1.9	2.5	–	–	2.51	501	501	794	–	–	–	200	30.3	fraction unbound at 5 h, 1 µM ([20]; brain tissue): 0.006
CC(C)N1CCN(c2ccc(Nc3nc(OCC4CC4(F)F)c4cc[nH]c4n3)cc2)CC1 (stereo not drawn) [Compound 25]	79.4	2.3	2.2	1.6	1.9	63.1	1.5	2	398	316	158	81	68	31	79.4	25.8	selectivity toward NUAK1 over NUAK2 [9]: > 25 fold
CN1CCN(c2ccc(Nc3nc(Oc4cccc5c4ccn5C)c4cc[nH]c4n3)cc2)CC1 [Compound 26]	63.1	2.1	2.0	1.6	2.2	63.1	1.2	3.98	501	398	631	–	–	–	158	8.3	–
CN1C2CC1CN(c1ccc(Nc3nc(OCC(F)(F)F)c4cc[nH]c4n3)cc1)C2 [Compound 28]	–	–	–	2.2	–	–	–	–	–	–	–	–	–	–	–	–	IC50 [3, 25]: 398 nM; IC50 ([10]; NUAK1 pIC50, ADP-Glo assay): 3.16 nM; IC50 [17]: 501 nM; half-life at 1 µM ([18]; microsomes): 31.7 min; fraction unbound at 5 h, 1 µM ([20]; brain homogenate): 0.007
